Experiments:
[1] = Selectivity ratio IC50 for human RPMI-8226 cells to IC50 for human MM1.R cells; type: toxicity
[2] = Antiproliferative activity against human HaCaT cells assessed as inhibition of cell viability measured after 72 hrs by MTS assay; type: toxicity, cell-based
RPMI-8226 = assay: Antiproliferative activity against human RPMI-8226 cells assessed as inhibition of cell viability measured after 72 hrs by MTS assay; type: functional, cell-based; settings: RPMI-8226, 72 h
[3] = Antiproliferative activity against human HAF cells assessed as inhibition of cell viability measured after 72 hrs by MTS assay; type: toxicity, cell-based
[4] = Antiproliferative activity against human MM1.R cells assessed as inhibition of cell viability measured after 72 hrs by MTS assay; type: functional, cell-based; settings: MM.1R
NCI-H929 = assay: Antiproliferative activity against human NCI-H929 cells assessed as inhibition of cell viability measured after 72 hrs by MTS assay; type: functional, cell-based; settings: NCI-H929, 72 h
[5] = Selectivity ratio IC50 for human RPMI-8226 cells to IC50 for human NCI-H929 cells; type: toxicity
[6] = target: T1, Interferon regulatory factor 4 (Homo sapiens, UniProt Q15306); assay: Inhibition of IRF4 (unknown origin) incubated for 1 hr by fluorescence polarization assay
T1 sequence (Q15306 whole entry): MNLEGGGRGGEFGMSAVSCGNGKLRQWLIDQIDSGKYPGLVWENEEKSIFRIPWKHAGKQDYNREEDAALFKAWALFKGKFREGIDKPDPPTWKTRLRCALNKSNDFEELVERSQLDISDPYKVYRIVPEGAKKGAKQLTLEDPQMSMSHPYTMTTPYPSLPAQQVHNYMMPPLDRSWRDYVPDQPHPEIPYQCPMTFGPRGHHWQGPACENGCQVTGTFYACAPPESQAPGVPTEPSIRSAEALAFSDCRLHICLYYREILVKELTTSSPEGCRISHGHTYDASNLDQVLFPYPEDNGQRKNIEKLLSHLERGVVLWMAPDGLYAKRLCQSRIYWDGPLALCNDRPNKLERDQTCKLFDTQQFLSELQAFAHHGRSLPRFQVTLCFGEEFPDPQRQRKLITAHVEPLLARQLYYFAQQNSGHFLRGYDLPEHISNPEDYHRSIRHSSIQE

| SMILES | IC50 [6] [µM] | other results |
| --- | --- | --- |
| C[C@H](C(=O)n1ccnc1)[C@H]1CC[C@H]2[C@@H]3C(=O)C=C4C(C)(C)C(=O)C(C#N)=C[C@]4(C)[C@H]3CC[C@]12C | 3.88 | Ratio IC50 [1]: 1.7; IC50 at 72 h [2]: > 100 µM; IC50 (RPMI-8226): 7650 nM; IC50 at 72 h [3]: > 100 µM; IC50 [4]: 4460 nM; IC50 (NCI-H929): 2570 nM; Ratio IC50 [5]: 3 |
| C[C@H](C(=O)Nc1ccc2cc[nH]c2c1)[C@H]1CC[C@H]2[C@@H]3C(=O)C=C4C(C)(C)C(=O)C(C#N)=C[C@]4(C)[C@H]3CC[C@]12C | 11.6 | – |
| COc1cccc(NC(=O)[C@@H](C)[C@H]2CC[C@H]3[C@@H]4C(=O)C=C5C(C)(C)C(=O)C(C#N)=C[C@]5(C)[C@H]4CC[C@]23C)c1 | 5.43 | – |
| CCCNC(=O)[C@@H](C)[C@H]1CC[C@H]2[C@@H]3C(=O)C=C4C(C)(C)C(=O)C(C#N)=C[C@]4(C)[C@H]3CC[C@]12C | > 20 | – |
| CCOC(=O)[C@@H](C)[C@H]1CC[C@H]2[C@@H]3C(=O)C=C4C(C)(C)C(=O)C(C#N)=C[C@]4(C)[C@H]3CC[C@]12C | > 20 | – |
| C[C@H](CO)[C@H]1CC[C@H]2[C@@H]3CCC4=CC(=O)CC[C@]4(C)[C@H]3CC[C@]12C | > 20 | – |
| C[C@H](C(=O)O)[C@H]1CC[C@H]2[C@@H]3CC=C4C(C)(C)C(=O)C(C#N)=C[C@]4(C)[C@H]3CC[C@]12C | > 20 | – |
| CCCCc1ccc(NC(=O)[C@@H](C)[C@H]2CC[C@H]3[C@@H]4C(=O)C=C5C(C)(C)C(=O)C(C#N)=C[C@]5(C)[C@H]4CC[C@]23C)cc1 | > 20 | – |
| C[C@H](C(=O)Nc1ccccc1O)[C@H]1CC[C@H]2[C@@H]3C(=O)C=C4C(C)(C)C(=O)C(C#N)=C[C@]4(C)[C@H]3CC[C@]12C | 15 | – |
| C[C@H](C(=O)n1cccn1)[C@H]1CC[C@H]2[C@@H]3C(=O)C=C4C(C)(C)C(=O)C(C#N)=C[C@]4(C)[C@H]3CC[C@]12C | 3.79 | Ratio IC50 [1]: 1.4; IC50 at 72 h [2]: > 100 µM; IC50 (RPMI-8226): 340 nM; IC50 at 72 h [3]: > 100 µM; IC50 [4]: 240 nM; IC50 (NCI-H929): 60 nM; Ratio IC50 [5]: 5.7 |
| C[C@H](C(=O)Nc1ncco1)[C@H]1CC[C@H]2[C@@H]3C(=O)C=C4C(C)(C)C(=O)C(C#N)=C[C@]4(C)[C@H]3CC[C@]12C | 7.61 | – |
| C[C@H](C(=O)Oc1ccc(Cl)cc1)[C@H]1CC[C@H]2[C@@H]3C(=O)C=C4C(C)(C)C(=O)C(C#N)=C[C@]4(C)[C@H]3CC[C@]12C | > 20 | – |
| COc1cc(NC(=O)[C@@H](C)[C@H]2CC[C@H]3[C@@H]4C(=O)C=C5C(C)(C)C(=O)C(C#N)=C[C@]5(C)[C@H]4CC[C@]23C)cc(OC)c1 | 7.06 | – |
| C[C@H](C(=O)Nc1ccccc1)[C@H]1CC[C@H]2[C@@H]3C(=O)C=C4C(C)(C)C(=O)C(C#N)=C[C@]4(C)[C@H]3CC[C@]12C | 4.86 | Ratio IC50 [1]: 6.5; IC50 at 72 h [2]: > 100 µM; IC50 (RPMI-8226): 720 nM; IC50 at 72 h [3]: > 100 µM; IC50 [4]: 110 nM; IC50 (NCI-H929): 700 nM; Ratio IC50 [5]: 1 |
| CCNC(=O)[C@@H](C)[C@H]1CC[C@H]2[C@@H]3C(=O)C=C4C(C)(C)C(=O)C(C#N)=C[C@]4(C)[C@H]3CC[C@]12C | > 20 | – |
| C[C@H](C(=O)Oc1ccc(C(F)(F)F)cc1)[C@H]1CC[C@H]2[C@@H]3C(=O)C=C4C(C)(C)C(=O)C(C#N)=C[C@]4(C)[C@H]3CC[C@]12C | > 20 | – |
| C[C@H](C(=O)Nc1ccc(C(F)(F)F)cc1)[C@H]1CC[C@H]2[C@@H]3C(=O)C=C4C(C)(C)C(=O)C(C#N)=C[C@]4(C)[C@H]3CC[C@]12C | > 20 | – |
| C[C@H](C(=O)Nc1cccnc1)[C@H]1CC[C@H]2[C@@H]3C(=O)C=C4C(C)(C)C(=O)C(C#N)=C[C@]4(C)[C@H]3CC[C@]12C | 5.05 | – |
| C[C@H](C(=O)NC1CCCCC1)[C@H]1CC[C@H]2[C@@H]3C(=O)C=C4C(C)(C)C(=O)C(C#N)=C[C@]4(C)[C@H]3CC[C@]12C | 16.4 | – |
| C[C@H](C(=O)OC1CCCC1)[C@H]1CC[C@H]2[C@@H]3C(=O)C=C4C(C)(C)C(=O)C(C#N)=C[C@]4(C)[C@H]3CC[C@]12C | > 20 | – |
| CCCCOc1ccc(NC(=O)[C@@H](C)[C@H]2CC[C@H]3[C@@H]4C(=O)C=C5C(C)(C)C(=O)C(C#N)=C[C@]5(C)[C@H]4CC[C@]23C)cc1 | 16.6 | – |
| COc1ccccc1NC(=O)[C@@H](C)[C@H]1CC[C@H]2[C@@H]3C(=O)C=C4C(C)(C)C(=O)C(C#N)=C[C@]4(C)[C@H]3CC[C@]12C | 10.4 | – |
| COc1ccc(NC(=O)[C@@H](C)[C@H]2CC[C@H]3[C@@H]4C(=O)C=C5C(C)(C)C(=O)C(C#N)=C[C@]5(C)[C@H]4CC[C@]23C)cc1OC | 18.8 | – |
| COC(=O)[C@@H](C)[C@H]1CC[C@H]2[C@@H]3C(=O)C=C4C(C)(C)C(=O)C(C#N)=C[C@]4(C)[C@H]3CC[C@]12C | > 20 | – |
| COc1ccc(NC(=O)CCC[C@@H](C)[C@H]2CC[C@H]3[C@@H]4C(=O)C=C5C(C)(C)C(=O)C(C#N)=C[C@]5(C)[C@H]4CC[C@]23C)cc1 | > 20 | – |
| CCCOC(=O)[C@@H](C)[C@H]1CC[C@H]2[C@@H]3C(=O)C=C4C(C)(C)C(=O)C(C#N)=C[C@]4(C)[C@H]3CC[C@]12C | > 20 | – |
| C[C@H](C(=O)NC1CCCC1)[C@H]1CC[C@H]2[C@@H]3C(=O)C=C4C(C)(C)C(=O)C(C#N)=C[C@]4(C)[C@H]3CC[C@]12C | > 20 | – |
| C[C@H](C(=O)Nc1ccc2nccnc2c1)[C@H]1CC[C@H]2[C@@H]3C(=O)C=C4C(C)(C)C(=O)C(C#N)=C[C@]4(C)[C@H]3CC[C@]12C | 5.62 | – |
| C[C@H](C(=O)Oc1ccccc1)[C@H]1CC[C@H]2[C@@H]3C(=O)C=C4C(C)(C)C(=O)C(C#N)=C[C@]4(C)[C@H]3CC[C@]12C | 8.1 | – |
| CNC(=O)[C@@H](C)[C@H]1CC[C@H]2[C@@H]3C(=O)C=C4C(C)(C)C(=O)C(C#N)=C[C@]4(C)[C@H]3CC[C@]12C | 16.4 | – |

Further lines, with some results ahead:

| IC50 [6] [µM] | SMILES | other results |
| --- | --- | --- |
| 15.1 | COc1ccc(NC(=O)C[C@@H](C)[C@H]2CC[C@H]3[C@@H]4C(=O)C=C5C(C)(C)C(=O)C(C#N)=C[C@]5(C)[C@H]4CC[C@]23C)cc1 | – |
| 14.2 | C[C@H](C(=O)Nc1nccs1)[C@H]1CC[C@H]2[C@@H]3C(=O)C=C4C(C)(C)C(=O)C(C#N)=C[C@]4(C)[C@H]3CC[C@]12C | – |
| 6.95 | COc1cc(NC(=O)[C@@H](C)[C@H]2CC[C@H]3[C@@H]4C(=O)C=C5C(C)(C)C(=O)C(C#N)=C[C@]5(C)[C@H]4CC[C@]23C)cc(OC)c1OC | – |
| 10.8 | CCOc1ccc(NC(=O)[C@@H](C)[C@H]2CC[C@H]3[C@@H]4C(=O)C=C5C(C)(C)C(=O)C(C#N)=C[C@]5(C)[C@H]4CC[C@]23C)cc1 | – |
| > 20 | C=CCNC(=O)[C@@H](C)[C@H]1CC[C@H]2[C@@H]3C(=O)C=C4C(C)(C)C(=O)C(C#N)=C[C@]4(C)[C@H]3CC[C@]12C | – |
| > 20 | C[C@H](CO)[C@H]1CC[C@H]2[C@@H]3C(=O)C=C4C(C)(C)C(=O)C(C#N)=C[C@]4(C)[C@H]3CC[C@]12C | – |
| 17.9 | COc1ccc(NC(=O)CC[C@@H](C)[C@H]2CC[C@H]3[C@@H]4C(=O)C=C5C(C)(C)C(=O)C(C#N)=C[C@]5(C)[C@H]4CC[C@]23C)cc1 | – |
| 12.8 | CCc1ccc(NC(=O)[C@@H](C)[C@H]2CC[C@H]3[C@@H]4C(=O)C=C5C(C)(C)C(=O)C(C#N)=C[C@]5(C)[C@H]4CC[C@]23C)cc1 | – |
| 3.52 | C[C@H](C(=O)Nc1ccc(O)cc1)[C@H]1CC[C@H]2[C@@H]3C(=O)C=C4C(C)(C)C(=O)C(C#N)=C[C@]4(C)[C@H]3CC[C@]12C | Ratio IC50 [1]: 4.3; IC50 at 72 h [2]: > 100 µM; IC50 (RPMI-8226): 2450 nM; IC50 at 72 h [3]: > 100 µM; IC50 [4]: 570 nM; IC50 (NCI-H929): 490 nM; Ratio IC50 [5]: 5 |
| > 20 | C#CCNC(=O)[C@@H](C)[C@H]1CC[C@H]2[C@@H]3C(=O)C=C4C(C)(C)C(=O)C(C#N)=C[C@]4(C)[C@H]3CC[C@]12C | – |
| > 20 | C[C@H](C(=O)OC1CCCCC1)[C@H]1CC[C@H]2[C@@H]3C(=O)C=C4C(C)(C)C(=O)C(C#N)=C[C@]4(C)[C@H]3CC[C@]12C | – |
| > 20 | C[C@H](C(=O)O)[C@H]1CC[C@H]2[C@@H]3C(=O)C=C4C(C)(C)C(=O)C=C[C@]4(C)[C@H]3CC[C@]12C | – |
| 9.37 | COc1ccc(OC(=O)[C@@H](C)[C@H]2CC[C@H]3[C@@H]4C(=O)C=C5C(C)(C)C(=O)C(C#N)=C[C@]5(C)[C@H]4CC[C@]23C)cc1 | – |
| > 20 | C[C@H](C(=O)Nc1ccc(Cl)cc1)[C@H]1CC[C@H]2[C@@H]3C(=O)C=C4C(C)(C)C(=O)C(C#N)=C[C@]4(C)[C@H]3CC[C@]12C | – |
| 9.65 | C[C@H](C(=O)Nc1cncnc1)[C@H]1CC[C@H]2[C@@H]3C(=O)C=C4C(C)(C)C(=O)C(C#N)=C[C@]4(C)[C@H]3CC[C@]12C | – |
| 12.1 | C[C@H](C(=O)Nc1ccc2ncsc2c1)[C@H]1CC[C@H]2[C@@H]3C(=O)C=C4C(C)(C)C(=O)C(C#N)=C[C@]4(C)[C@H]3CC[C@]12C | – |

Source: ChEMBL document CHEMBL6121019, “Design, synthesis and biological evaluation of bisnoralcohol derivatives as novel IRF4 inhibitors for the treatment of multiple myeloma” (Eur J Med Chem, 2025)
